Consider two compounds from PubChem BioAssay (NCI).

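Five concentrations, 48 hours, 96-well plates. TGI: total growth inhibition.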

Test systems include U251 CNS; TK-10 renal; SNB-78 CNS; SNB-19 CNS; KM12 colon; DLD-1 colon; DMS 273 small cell lung; SR leukemia; UO-31 renal; COLO 205 colon; DU-145 prostate; M14 melanoma; OVCAR-4 ovarian; RXF 393 renal; NCI-H23 lung; UACC-62 melanoma; NCI/ADR-RES ovarian; ACHN renal; HS 578T breast; NCI-H522 lung.
Holding throughout (test): NCI-60 cell line screen, 48 h

In the case of `COc1ccc2nc3ccccc3c(NCCCCCCN(CCCl)CCCl)c2c1`, the TGI stood at 1570 nM in the test on U251 CNS; 23800 nM in the test on TK-10 renal; 2130 nM with SNB-78 CNS; 3450 nM in the test with SNB-19 CNS; 1140 nM in the test with KM12 colon; 2200 nM in the test on DLD-1 colon. Moreover, the TGI in the test with DMS 273 small cell lung turned out to be 206 nM; in the test with SR leukemia, 346 nM; in the test with UO-31 renal, 513 nM; in the test with COLO 205 colon, 107 nM; in the test on DU-145 prostate, 1470 nM; in the test on M14 melanoma, 514 nM. In addition, the TGI in the test on OVCAR-4 ovarian turned out to be 1050 nM.

On to `N=C(N)c1ccc(N=Nc2c(O)ccc3c2[nH]c2ccccc23)cc1`, for which the TGI with RXF 393 renal was > 100000 nM; in the test on TK-10 renal it was > 95300 nM; with NCI-H23 lung it was > 100000 nM; with UACC-62 melanoma, > 100000 nM; in the test on SNB-19 CNS, > 100000 nM; in the test on NCI/ADR-RES ovarian it was > 100000 nM. For the same compound, the TGI in the test with UO-31 renal is > 90900 nM; in the test on COLO 205 colon, > 100000 nM; with DU-145 prostate, > 100000 nM; in the test on ACHN renal, 86400 nM; in the test with M14 melanoma it was > 100000 nM; in the test with HS 578T breast it was > 100000 nM. Further, the TGI in the test on NCI-H522 lung is > 100000 nM; in the test with OVCAR-4 ovarian, > 28500 nM.
